Laboratory results reported in US7459414B2, “Herbicides” (Syngenta Crop Protection, Inc., priority 2002, dated 2008).

Tests used:
Type in all cases: in vivo
[1] = tested on: Alopecurus (Alo); test: Example B1 pre-emergence herbicidal action (comparison test); set-up: key: 1=total damage; 9=no action; settings: 500 g of active ingredient/ha; 3 weeks after application; scale of nine ratings, 1 to 4 = good to very good action
Description: (§1) Monocotyledonous and dicotyledonous weeds are sown in plastics pots in standard soil. Immediately after sowing, the test substances are applied in the form of an aqueous suspension (prepared from a 25% wettable powder (Example F3, b)) or in the form of an emulsion (prepared from a 25% emulsifiable concentrate (Example F1, c)) (500 liters of water/ha). The rate of application is 500 g of active substance/ha. The test plants are then grown in the greenhouse under optimum conditions. The evaluation is carried out 3 weeks after application, using a scale of nine ratings (1=total damage, 9=no action). Ratings of from 1 to 4 (especially from 1 to 3) indicate good to very good herbicidal action. Test plants: Alopecurus (Alo), Avena (Ave), Lolium (Lol), Setaria (Set), Panicum (Pan), Sorghum (Sor), Digitaria (Dig), Echinochloa (Ech) and Brachiaria (Bra).

[2] = tested on: Avena (Ave); test: as above; set-up: key: 1=total damage; 9=no action; settings: 500 g of active ingredient/ha; 3 weeks after application; scale of nine ratings, 1 to 4 = good to very good action
Description: as §1

[3] = tested on: Brachiaria (Bra); test: as above; set-up: key: 1=total damage; 9=no action; settings: 500 g of active ingredient/ha; 3 weeks after application; scale of nine ratings, 1 to 4 = good to very good action
Description: as §1

[4] = tested on: Echinochloa (Ech); test: as above; set-up: key: 1=total damage; 9=no action; settings: 500 g of active ingredient/ha; 3 weeks after application; scale of nine ratings, 1 to 4 = good to very good action
Description: as §1

[5] = tested on: Lolium (Lol); test: as above; set-up: key: 1=total damage; 9=no action; settings: 500 g of active ingredient/ha; 3 weeks after application; scale of nine ratings, 1 to 4 = good to very good action
Description: as §1

[6] = tested on: Panicum (Pan); test: as above; set-up: key: 1=total damage; 9=no action; settings: 500 g of active ingredient/ha; 3 weeks after application; scale of nine ratings, 1 to 4 = good to very good action
Description: as §1

[7] = tested on: Setaria (Set); test: as above; set-up: key: 1=total damage; 9=no action; settings: 500 g of active ingredient/ha; 3 weeks after application; scale of nine ratings, 1 to 4 = good to very good action
Description: as §1

[8] = tested on: Sorghum (Sor); test: as above; set-up: key: 1=total damage; 9=no action; settings: 500 g of active ingredient/ha; 3 weeks after application; scale of nine ratings, 1 to 4 = good to very good action
Description: as §1

[9] = tested on: Digitaria (Dig); test: as above; settings: 500 g of active ingredient/ha; 3 weeks after application; scale of nine ratings, 1 to 4 = good to very good action
Description: as §1

[10] = tested on: Alopecurus (Alo); test: Example B2 post-emergence herbicidal action (comparison test); set-up: key: 1=total damage; 9=no action; settings: 250 g of active ingredient/ha; 3- to 6-leaf stage; 3 weeks after application; scale of nine ratings, 1 to 4 = good to very good action
Description: (§2) Monocotyledonous and dicotyledonous weeds are grown in standard soil in plastics pots under greenhouse conditions. The test substances are applied to the test plants at the 3- to 6-leaf stage. […] suspension (prepared from a 25% wettable powder (Example F3, b)) or in the form of an emulsion (prepared from a 25% emulsifiable concentrate (Example F1, c)) (500 liters of water/ha). The evaluation is carried out 3 weeks after application, using a scale of nine ratings (1=total damage, 9=no action). Ratings of from 1 to 4 (especially from 1 to 3) indicate good to very good herbicidal action. Test plants: Alopecurus (Alo), Avena (Ave), Lolium (Lol), Setaria (Set), Panicum (Pan), Sorghum (Sor), Digitaria (Dig), Echinocloa (Ech) and Brachiaria (Bra).

[11] = tested on: Avena (Ave); test: as above; set-up: key: 1=total damage; 9=no action; settings: 250 g of active ingredient/ha; 3- to 6-leaf stage; 3 weeks after application; scale of nine ratings, 1 to 4 = good to very good action
Description: as §2

[12] = tested on: Brachiaria (Bra); test: as above; set-up: key: 1=total damage; 9=no action; settings: 250 g of active ingredient/ha; 3- to 6-leaf stage; 3 weeks after application; scale of nine ratings, 1 to 4 = good to very good action
Description: as §2

[13] = tested on: Echinocloa (Ech); test: as above; set-up: key: 1=total damage; 9=no action; settings: 250 g of active ingredient/ha; 3- to 6-leaf stage; 3 weeks after application; scale of nine ratings, 1 to 4 = good to very good action
Description: as §2

[14] = tested on: Lolium (Lol); test: as above; set-up: key: 1=total damage; 9=no action; settings: 250 g of active ingredient/ha; 3- to 6-leaf stage; 3 weeks after application; scale of nine ratings, 1 to 4 = good to very good action
Description: as §2

[15] = tested on: Panicum (Pan); test: as above; set-up: key: 1=total damage; 9=no action; settings: 250 g of active ingredient/ha; 3- to 6-leaf stage; 3 weeks after application; scale of nine ratings, 1 to 4 = good to very good action
Description: as §2

[16] = tested on: Setaria (Set); test: as above; set-up: key: 1=total damage; 9=no action; settings: 250 g of active ingredient/ha; 3- to 6-leaf stage; 3 weeks after application; scale of nine ratings, 1 to 4 = good to very good action
Description: as §2

[17] = tested on: Sorghum (Sor); test: as above; set-up: key: 1=total damage; 9=no action; settings: 250 g of active ingredient/ha; 3- to 6-leaf stage; 3 weeks after application; scale of nine ratings, 1 to 4 = good to very good action
Description: as §2

[18] = tested on: Digitaria (Dig); test: as above; settings: 250 g of active ingredient/ha; 3- to 6-leaf stage; 3 weeks after application; scale of nine ratings, 1 to 4 = good to very good action
Description: as §2

[19] = tested on: Avena (Ave); test: Example B3 pre-emergence herbicidal action, MERGE oil additive 0.7% (Table B3); set-up: key: 1=total damage; 9=no action; settings: 500 g of active substance/ha; MERGE oil additive 0.7% by weight of the spray mixture; evaluation 3 weeks after application; scale of nine ratings
Description: (§3) Monocotyledonous and dicotyledonous weeds are sown in standard soil in plastics pots. Immediately after sowing, the test substances are applied in the form of an aqueous suspension (prepared from a 25% wettable powder (Example F3, b)) or in the form of an emulsion (prepared from a 25% emulsifiable concentrate (Example F1, c)) (500 liters of water/ha). The rate of application is 500 g of active substance/ha. The test plants are then grown in the greenhouse under optimum conditions. The evaluation is carried out 3 weeks after application, sing a scale of nine ratings (1=total damage, 9=no action). Ratings of from 1 to 4 (especially from 1 to 3) indicate good to very good herbicidal action. Test plants: Avena (Ave), Lolium (Lol), Setaria (Set).

[20] = tested on: Lolium (Lol); test: as above; set-up: key: 1=total damage; 9=no action; settings: 500 g of active substance/ha; MERGE oil additive 0.7% by weight of the spray mixture; evaluation 3 weeks after application; scale of nine ratings
Description: as §3

[21] = tested on: Setaria (Set); test: as above; set-up: key: 1=total damage; 9=no action; settings: 500 g of active substance/ha; MERGE oil additive 0.7% by weight of the spray mixture; evaluation 3 weeks after application; scale of nine ratings
Description: as §3

[22] = tested on: Avena (Ave); test: Example B4 post-emergence herbicidal action, MERGE oil additive 0.7% (Table B4); set-up: key: 1=total damage; 9=no action; settings: 500 g of active substance per hectare; applied at 3- to 6-leaf stage; MERGE oil additive 0.7% by weight of the spray mixture; evaluation 3 weeks after application; scale of nine ratings
Description: (§4) Monocotyledonous and dicotyledonous weeds are grown in standard soil in plastics pots under greenhouse conditions. The test substances are applied to the test plants at the 3- to 6-leaf stage. The test substances are applied at a rate of application of 500 g of active substance per hectare in the form of an aqueous suspension (prepared from a 25% wettable powder (Example F3, b)) or in the form of an emulsion (prepared from a 25% emulsifiable concentrate (Example F1, c)) (500 liters of water/ha). The evaluation is carried out 3 weeks after application, using a scale of nine ratings (1=total damage, 9=no action). Ratings of from 1 to 4 (especially from 1 to 3) indicate good to very good herbicidal action. Herbicidal Action After the Emergence of the Plants (Post-emergence Action) of Compounds of the Present Invention (for Description See Example B2) Test plants: Avena (Ave), Lolium (Lol), Setaria (Set).

[23] = tested on: Lolium (Lol); test: as above; set-up: key: 1=total damage; 9=no action; settings: 500 g of active substance per hectare; applied at 3- to 6-leaf stage; MERGE oil additive 0.7% by weight of the spray mixture; evaluation 3 weeks after application; scale of nine ratings
Description: as §4

[24] = tested on: Setaria (Set); test: as above; set-up: key: 1=total damage; 9=no action; settings: 500 g of active substance per hectare; applied at 3- to 6-leaf stage; MERGE oil additive 0.7% by weight of the spray mixture; evaluation 3 weeks after application; scale of nine ratings
Description: as §4

CCc1cc(C)cc(CC)c1-c1c(OC(=O)C(C)(C)C)n2n(c1=O)CCCC2 [1.02]
Pre-emergence action rating, Alo [1]: 1
Pre-emergence action, rating, Ave [2]: 1
Pre-emergence action rating, Bra [3]: 1
Pre-emergence action rating, Ech [4]: 1
Pre-emergence action, rating, Lol [5]: 1
Pre-emergence action rating, Pan [6]: 1
Pre-emergence action, rating, Set [7]: 1
Pre-emergence action rating, Sor [8]: 1
Pre-emergence action rating, Dig [9]: 4
Post-emergence action rating, Alo [10]: 1
Post-emergence action, rating, Ave [11]: 1
Post-emergence action rating, Bra [12]: 1
Post-emergence action rating, Ech [13]: 1
Post-emergence action, rating, Lol [14]: 1
Post-emergence action rating, Pan [15]: 1
Post-emergence action, rating, Set [16]: 1
Post-emergence action rating, Sor [17]: 1
Post-emergence action rating, Dig [18]: 2
Pre-emergence action, rating, Ave [19]: 1
Pre-emergence action, rating, Lol [20]: 1
Pre-emergence action, rating, Set [21]: 1
Post-emergence action, rating, Ave [22]: 1
Post-emergence action, rating, Lol [23]: 1
Post-emergence action, rating, Set [24]: 1

CCc1cc(C)cc(CC)c1-c1c(OC(=O)C(C)(C)C)n2n(c1=O)CC(OC)C(OC)C2 (stereo not drawn) [1.08]
Post-emergence action, rating, Ave [22]: 1
Post-emergence action, rating, Lol [23]: 1
Post-emergence action, rating, Set [24]: 1

CCc1cc(C)cc(CC)c1-c1c(O)n2n(c1=O)CC(O)C(Cl)C2 (stereo not drawn) [1.10]
Post-emergence action, rating, Ave [22]: 1
Post-emergence action, rating, Lol [23]: 1
Post-emergence action, rating, Set [24]: 1

CCc1cc(C)cc(CC)c1-c1c(O)n2n(c1=O)CC(OCC(C)C)CC2 (stereo not drawn) [1.11]
Post-emergence action, rating, Ave [22]: 1
Post-emergence action, rating, Lol [23]: 1
Post-emergence action, rating, Set [24]: 1

CCc1cc(C)cc(CC)c1-c1c(O)n2n(c1=O)CC(OC(C)C)CC2 (stereo not drawn) [1.14]
Post-emergence action, rating, Ave [22]: 1
Post-emergence action, rating, Lol [23]: 2
Post-emergence action, rating, Set [24]: 2

CCc1cc(C)cc(CC)c1-c1c(O)n2n(c1=O)CC(OCCOC)CC2 (stereo not drawn) [1.15]
Post-emergence action, rating, Ave [22]: 1
Post-emergence action, rating, Lol [23]: 2
Post-emergence action, rating, Set [24]: 1

CCc1cc(C)cc(CC)c1-c1c(O)n2n(c1=O)CC(OCCO)CC2 (stereo not drawn) [1.17]
Post-emergence action, rating, Ave [22]: 1
Post-emergence action, rating, Lol [23]: 1
Post-emergence action, rating, Set [24]: 2

CCc1cc(C)cc(CC)c1-c1c(O)n2n(c1=O)CC(OCC(=O)O)CC2 (stereo not drawn) [1.19]
Post-emergence action, rating, Ave [22]: 1
Post-emergence action, rating, Lol [23]: 1
Post-emergence action, rating, Set [24]: 1
